Test results published in patent publication US20240376094A2, “SELECTIVE BCL-XL PROTAC COMPOUNDS AND METHODS OF USE” (Les Laboratoires Servier, priority 2021, published 2024).
pIC50: −log10 of the molar value.

What was measured:
MOLT-4 cells = assay: MOLT-4 cell viability, CTG assay; assay type: cell-based; settings: Homo sapiens, MOLT-4, 48 h
Description: The MTT colorimetric assay is based on the mitochondrial reduction of tetrazolium salt by living cells. The viable cell number is proportional to the production of formazan salts, which can be read spectrophotometrically at 540 nm. The CTG luminescent assay (CellTiter GLO, Promega) is based on a reagent which lyses cells and measures total adenosine triphosphate (ATP) content. The viable cell number is proportional to the production of ATP.
MOLT-4 cells were purchased from ATCC and cultivated in RPMI 1640 supplemented with 10% heat inactivated fetal bovine serum, penicillin (100 IU/mi), streptomycin (100 μg/ml) and L-glutamine (2 mM). Cells were cultured at 37° C. in a humidified atmosphere containing 5% […].
For CTG assay, cells were seeded in 384 microwell plates (40 μL per well) and exposed to the compounds for 48 h (11-point serial dilution with 5-fold factor, triplicates). At the end of incubation time, 40 μL of CTG solution were added per well. Wells were mixed thoroughly, and plates were incubated at room temperature for 10 minutes to stabilize luminescent signals prior to reading using a luminescence reader (PHERAStar FSX Reader, BMG Labtech).
IC50, were calculated using standard four-parametric curve fitting. IC50 is defined as the compound concentration at which the MTT or CTG signal is reduced to 50% of that measured for the control. Results shown in Table 14 represent the mean of at least 2 independent experiments.

Bcl-xL = molecular target: T1, Bcl-xL (Homo sapiens, UniProt Q07817); assay: HCT116 Bcl-xL degradation, capillary-based immunoassay (WES); assay type: cell-based; settings: HCT116, 24 h, 9-point serial dilution
T1 construct: Measured levels of Bcl-xL protein of HCT116 cells treated with the tested compounds; host or cells: HCT116
Description: HCT116 cells were purchased from ATCC and cultivated in RPMI 1640 supplemented with 10% heat inactivated fetal bovine serum, penicillin (100 IU/mi), streptomycin (100 μg/ml) and L-glutamine (2 mM). Cells were cultured at 37° C. in a humidified atmosphere containing 5% CO2. Cells were seeded in 96 microwell plates, 24 h later cells were treated with compounds (2-point 10/100 nM and/or 9-point serial dilution to determine DC50; quadruplicates) during 24 h and harvested in lysis buffer containing 10 mM Hepes (pH 7.5), 150 mM KCl, 5 mM MgCl2, 1 mM EDTA, 0.4% TritonX100, protease and phosphatase inhibitors cocktails (Calbiochem).
Protein concentration in the supernatants was determined using the Pierce BCA protein assay kit (Thermo Fisher Scientific). Lysates (1.5 μg/μL) were analyzed using an automated capillary electrophoresis WES system with 2-40 kDa Wes Separation Module (25 capillary cartridges, Proteinsimple), in accordance with the manufacturer's protocols. Antibodies against the following proteins were used: Bcl-xL (#2764, Cell Signaling Technology, 1:50) and cofilin (#5175, Cell Signaling Technology, 1:1000). Signals were detected with an HRP-conjugated secondary anti-rabbit antibody (#042-206, Proteinsimple) and were quantified using Compass software (version 4.0, Proteinsimple).
Bcl-xL level was calculated by normalizing Bcl-xL values to cofilin and expressed as a percentage of the normalized value of the untreated cells. DC50 were calculated using standard four-parametric curve fitting. DC50 is defined as the compound concentration at which Bcl-xL is reduced to 50% of that measured for the control. Measured levels of Bcl-xL protein of HCT116 cells treated with the tested compounds at 2-point 10 nM/100 nM and/or 9-point for DC50 determination are shown in Table 15.

T1 sequence (Q07817 whole entry): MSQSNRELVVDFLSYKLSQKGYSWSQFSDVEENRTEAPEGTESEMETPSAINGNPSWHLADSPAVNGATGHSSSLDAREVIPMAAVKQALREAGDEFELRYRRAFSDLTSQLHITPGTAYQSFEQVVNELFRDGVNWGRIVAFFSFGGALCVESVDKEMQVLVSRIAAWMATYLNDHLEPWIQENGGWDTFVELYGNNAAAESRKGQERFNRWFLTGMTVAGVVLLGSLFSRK

pIC50 (MOLT-4 cells) | DC50 (Bcl-xL) [nM] | Structure (SMILES)
8.58 | 0.211 | Cc1c(Nc2nc3ccccc3s2)nnc2c1CCCN2c1ccc(-c2cnn(CC34CC5(C)CC(C)(C3)CC(OCCN(C)CCCCCCCOc3ccc6c(c3)C(=O)N(C3CCC(=O)NC3=O)C6=O)(C5)C4)c2C)c(C(=O)O)n1 (stereo not shown) [Example 106, 6-[3-(1,3-benzothiazol-2-ylamino)-4-methyl-6,7-dihydro-5H-pyrido[2,3-c]pyridazin-8-yl]-3-[1-[[3-[2-[7-[2-(2,6-dioxo-3-piperidyl)-1,3-dioxo-isoindolin-5-yl]oxyheptyl-methyl-amino]ethoxy]-5,7-dimethyl-1-adamantyl]methyl]-5-methyl-pyrazol-4-yl]pyridine-2-carboxylic acid]
8.33 | 0.739 | Cc1c(Nc2nc3ccccc3s2)nnc2c1CCCN2c1ccc(-c2cnn(CC34CC5(C)CC(C)(C3)CC(OCCN(C)CCCCCOc3ccc6c(c3)C(=O)N(C3CCC(=O)NC3=O)C6=O)(C5)C4)c2C)c(C(=O)O)n1 (stereo not shown) [Example 107, 6-[3-(1,3-benzothiazol-2-ylamino)-4-methyl-6,7-dihydro-5H-pyrido[2,3-c]pyridazin-8-yl]-3-[1-[[3-[2-[5-[2-(2,6-dioxo-3-piperidyl)-1,3-dioxo-isoindolin-5-yl]oxypentyl-methyl-amino]ethoxy]-5,7-dimethyl-1-adamantyl]methyl]-5-methyl-pyrazol-4-yl]pyridine-2-carboxylic acid]

The remaining lines, values behind:

Structure (SMILES) | pIC50 (MOLT-4 cells) | DC50 (Bcl-xL) [nM]
CN[C@@H](C)C(=O)N[C@H](C(=O)N1CCC[C@H]1c1nc(C(=O)c2cccc(OCCCCCCN(C)CCOC34CC5(C)CC(C)(CC(Cn6ncc(-c7ccc(N8CCCc9c8nnc(Nc8nc%10ccccc%10s8)c9C)nc7C(=O)O)c6C)(C5)C3)C4)c2)cs1)C1CCCCC1 [Example 102, 6-[3-(1,3-benzothiazol-2-ylamino)-4-methyl-6,7-dihydro-5H-pyrido[2,3-c]pyridazin-8-yl]-3-[1-[[3-[2-[6-[3-[2-[(2S)-1-[(2S)-2-cyclohexyl-2-[[(2S)-2-(methylamino)propanoyl]amino]acetyl]pyrrolidin-2-yl]thiazole-4-carbonyl]phenoxy]hexyl-methyl-amino]ethoxy]-5,7-dimethyl-1-adamantyl]methyl]-5-methyl-pyrazol-4-yl]pyridine-2-carboxylic acid] | 8.39 | 0.448
Cc1c(Nc2nc3ccccc3s2)nnc2c1CCCN2c1ccc(-c2cnn(CC34CC5(C)CC(C)(C3)CC(OCCN(C)CCCCCCCCCOc3ccc6c(c3)C(=O)N(C3CCC(=O)NC3=O)C6=O)(C5)C4)c2C)c(C(=O)O)n1 (stereo not shown) [Example 104, 6-[3-(1,3-benzothiazol-2-ylamino)-4-methyl-6,7-dihydro-5H-pyrido[2,3-c]pyridazin-8-yl]-3-[1-[[3-[2-[9-[2-(2,6-dioxo-3-piperidyl)-1,3-dioxo-isoindolin-5-yl]oxynonyl-methyl-amino]ethoxy]-5,7-dimethyl-1-adamantyl]methyl]-5-methyl-pyrazol-4-yl]pyridine-2-carboxylic acid] | 8.76 | 0.0184
Cc1c(Nc2nc3ccccc3s2)nnc2c1CCCN2c1ccc(-c2cnn(CC34CC5(C)CC(C)(C3)CC(OCCN(C)CCCCCCCCCCCOc3ccc6c(c3)C(=O)N(C3CCC(=O)NC3=O)C6=O)(C5)C4)c2C)c(C(=O)O)n1 (stereo not shown) [Example 105, 6-[3-(1,3-benzothiazol-2-ylamino)-4-methyl-6,7-dihydro-5H-pyrido[2,3-c]pyridazin-8-yl]-3-[1-[[3-[2-[11-[2-(2,6-dioxo-3-piperidyl)-1,3-dioxo-isoindolin-5-yl]oxyundecyl-methyl-amino]ethoxy]-5,7-dimethyl-1-adamantyl]methyl]-5-methyl-pyrazol-4-yl]pyridine-2-carboxylic acid] | 8.76 | 0.0447
